How the values were obtained:
aortic sterol content = test: Decrease of aortic sterol content without effecting serum sterol in cholesterol-fed cockerels; type: in vivo, Day-old Cockerels; parameters: key: Active: Compounds which statistically decrease the aortic sterol content without having an effect on serum sterol are considered to be active; settings: 525 mg. test compound and 20 g. cholesterol per kg. of diet, 14 days
Procedure: The compounds were further tested for their ability to decrease aortic sterol content without effecting serum sterol.
Day-old Cockerels were placed on diets consisting of pullet starter mash supplemented with either 20 g. cholesterol (control group) or 20 g. cholesterol and 525 mg. test compound (drug-treated group) per kg. of diet.
For the control diet, 20 g. of cholesterol was dissolved in 200 ml. of chloroform, mixed into one kg. of pullet starter mash and then the choloroform was removed by evaporation.
For the drug-treatment group, 525 mg. of the test compound was dissolved in 100 ml. of chloroform, mixed into a diet prepared as described above and then the chloroform was evaporated.
The cockerels were housed three per cage and given water and their respective diet ad libitum for 14 days. Blood was collected by cardiac puncture and the serum was saponified [Trinder, P., Analyst, 77, 321 (1952)] and extracted and the cholesterol content determinted [Zlatkis, A., et al., J. Lab Clin Med., 41 486 (1953)]. The aortae were removed, cleaned of adventitial tissue and the sterol content determined according to the above procedures. Compounds which statistically decrease the aortic sterol content without having an effect on serum sterol are considered to be active.

[1] = biological target: T1, fatty acyl CoA:-cholesterol acyl transferase (ACAT) (Rattus norvegicus, UniProt O70536); test: Inhibition of enzymatic esterification of cholesterol (ACAT inhibition), rat adrenal supernatant; type: biochemical; settings: final concentration 5.2 μg./ml., 37° C., 30 minutes
T1 construct: The supernatant, containing the microsomal fraction, served as the source of the cholesterol-esterifying enzyme; from tissue; host or cells: rat adrenals, 1000 x g supernatant containing the microsomal fraction
T1 sequence (O70536 1-545): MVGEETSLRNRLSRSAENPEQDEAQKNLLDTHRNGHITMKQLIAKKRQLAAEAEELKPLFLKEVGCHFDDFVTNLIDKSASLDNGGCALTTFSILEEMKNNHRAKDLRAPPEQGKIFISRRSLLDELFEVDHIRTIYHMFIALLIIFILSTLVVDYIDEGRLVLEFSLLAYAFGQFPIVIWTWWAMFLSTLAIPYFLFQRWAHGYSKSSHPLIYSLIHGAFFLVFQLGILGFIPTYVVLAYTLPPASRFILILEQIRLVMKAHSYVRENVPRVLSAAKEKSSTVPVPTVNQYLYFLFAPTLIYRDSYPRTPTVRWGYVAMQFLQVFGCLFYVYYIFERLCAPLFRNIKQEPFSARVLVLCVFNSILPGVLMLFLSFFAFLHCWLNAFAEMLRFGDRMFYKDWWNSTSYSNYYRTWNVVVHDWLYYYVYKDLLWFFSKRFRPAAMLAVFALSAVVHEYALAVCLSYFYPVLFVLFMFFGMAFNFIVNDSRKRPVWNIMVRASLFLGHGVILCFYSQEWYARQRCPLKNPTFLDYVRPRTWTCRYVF
Procedure: The compounds of the present invention were tested for their ability to inhibit the enzymatic esterification of cholesterol according to the procedure of Hashimoto, et al., Life Sci., 12(Part II), 1-12 (1973).
Rat adrenals were homogenized in 0.2 M monobasic potassium phosphate buffer, pH 7.4, and centrifuged at 1000 times gravity for 15 minutes at 5° C. The supernatant, containing the microsomal fraction, served as the source of the cholesterol-esterifying enzyme, fatty acyl CoA:-cholesterol acyl transferase (ACAT). A mixture comprising 50 parts of adrenal supernatant, 10 parts of bovine serum albumin (50 mg./ml.), 3 parts of test compound (final concentration 5.2 μg./ml.) and 500 parts of buffer were preincubated at 37° C. for 10 minutes, following which 20 parts of oleoyl […] were added and the final mixture was incubated at 37° C. for 30 minutes. A control mixture, omitting the test compound, was prepared and treated in the same manner. The lipids from the incubation mixture were extracted into an organic solvent and separated by thin-layer chromatography. The cholesterol ester fraction was counted in a scintillation counter. A statistically significant inhibition of the ACAT enzyme is the criterion for activity.

[2] = system: serum cholesterol and triglyceride; test: Lowering of serum lipid levels, oral administration in diet to rats; type: in vivo, male rats COBS, CD, SD strain; settings: 0.1% of test compound by weight in diet, 5 days, vs control rats
Procedure: The compounds were also tested for their ability to lower lipid levels in mammals. The compounds were administered orally admixed with diet to groups of four male rats COBS, CD, SD strain from Charles River Breeding Laboratories, Inc., Wilmington, Mass. A control group of eight rats was maintained on the diet alone; test groups were maintained on the diet plus 0.1% of test compound by weight. After 5 days treatment, serum cholesterol and triglyceride concentrations were determined by direct enzymatic procedures using a Centrifichem® System 400 autoanalyzer (Union Carbide Co.). Cholesterol concentrations were determined by the combined cholesterol esterasecholesterol oxidase procedure of Roeschlau, et al., Zeit. Klin. Chem. Klin. Biochem., 12, 226 (1974). Triglycerides were determined by the combined method of lipase catalyzed hydrolysis of triglycerides to glycerol and free fatty acids [Bucolo, G. and David, H., Clin. Chem., 19, 476 (1973) and Wahlefeld, A. W., in "Methods of Enzymatic Analysis," Vol, 4, Bergmeyer, H. D., Editor, Academic Press, New York, N.Y. (1974), pp. 1831-1835] and the enzymatic oxidation of the glycerol which leads to the production of colored formazan [Stavropoulos, W. S. and Crouch, R. D., Clin. Chem., 20, No. 7, 857 (1974)]. […] The compounds are considered active if they produce a statistically significant lowering of either sterol or triglycerides.

Structure (SMILES) | inhibition at 5.2 µg/mL [1] [%] | % Lowering of Serum Triglycerides [2] [%] | also measured
O=C(Nc1c(Cl)cccc1Cl)N1CCN(c2cnccn2)CC1 [2',6'-Dichloro-4-(2-pyrazinyl)-1-piperazinecarboxanilide] | – | – | Result (decrease of aortic sterol content without effect on serum sterol) (aortic sterol content): Active
O=C(Cc1ccccc1)N1CCN(c2cnc3ccccc3n2)CC1 [1-Phenylacetyl-4-(2-quinoxalinyl)piperazine] | 40.1 | – | –
Cc1ccccc1CC(=O)N1CCN(c2nccs2)CC1 [1-(2-Thiazolyl)-4-o-tolylacetylpiperazine] | 32.6 | – | –
O=C(N1CCN(c2cnccn2)CC1)C(F)(F)C(F)(F)C(F)(F)C(F)(F)C(F)(F)C(F)(F)C(F)(F)F [1-(Pentadecafluorooctanoyl)-4-(2-pyrazinyl)piperazine] | 39 | 74 | % Lowering of Serum Sterol [2]: 47%
O=C(c1ccccc1)N1CCN(c2cnccn2)CC1 [1-benzoyl-4-(2-pyrazinyl)piperazine, 1-Benzoyl-4-(2-pyrazinyl)piperazine] | – | 30 | –
O=C(c1cccnc1)N1CCN(c2cnccn2)CC1 [1-(2-Pyrazinyl)-4-(3-pyridylcarbonyl)piperazine] | – | 30 | –
CC(Oc1ccccc1)C(=O)N1CCN(c2cnccn2)CC1 (stereo not drawn) [1-(2-Phenoxypropionyl)-4-(2-pyrazinyl)piperazine] | 30.5 | 62 | –
O=C(Cc1ccccc1)N1CCN(c2ccc(Cl)cc2)CC1 [1-(p-Chlorophenyl)-4-phenylacetylpiperazine] | 73.3 | – | –
O=C(CCCCCc1ccc(Cl)cc1)N1CCN(c2cnccn2)CC1 [1-[6-(p-Chlorophenyl)hexanoyl]-4-(2-pyrazinyl)piperazine] | 68.9 | 30 | –
CCNC(=O)N1CCN(c2cnccn2)CC1 [N--Ethyl-4-(2-pyrazinyl)-1-piperazinecarboxamide] | – | 43 | –
O=C(Cc1ccccc1)N1CCN(c2ccc3ccccc3n2)CC1 [1-phenylacetyl-4-(2-quinolyl)piperazine, 1-Phenylacetyl-4-(2-quinolyl)piperazine] | 89.7 | 53 | % Lowering of Serum Sterol [2]: 69%
CC1CN(C(=O)Cc2ccccc2)CCN1c1ccc(Cl)cc1 (stereo not drawn) [1-(p-Chlorophenyl)-2-methyl-4-phenylacetylpiperazine] | 88.1 | 61 | –
O=C(CCCCC(=O)N1CCN(c2cnccn2)CC1)c1ccc(Cl)cc1 [1-[5-(p-Chlorobenzoyl)valeryl]-4-(2-pyrazinyl)piperazine] | 47.4 | 45 | –
COc1cncc(N2CCN(C(=O)Cc3ccccc3)CC2)n1 [1-(6-Methoxy-2-pyrazinyl)-4-phenylacetylpiperazine] | 38.1 | 56 | –
O=C(N1CCN(c2cnccn2)CC1)C(F)(F)C(F)(F)C(F)(F)F [1-Heptafluorobutyroyl-4-(2-pyrazinyl)piperazine] | – | 51 | –
CC(C)(C)NC(=O)N1CCN(c2cnccn2)CC1 [N--tert.-Butyl-4-(2-pyrazinyl)-1-piperazinecarboxamide] | 35.4 | – | –

Structure (SMILES) | inhibition at 5.2 µg/mL [1] [%] | % Lowering of Serum Triglycerides [2] [%] | also measured
O=C(Nc1ccc(Cl)cc1)N1CCN(c2cnccn2)CC1 [4'-Chloro-4-(2-pyrazinyl)-1-piperazinecarboxanilide] | – | 33 | –
CC(C)(C)c1ccc(C(=O)N2CCN(c3cnccn3)CC2)cc1 [1-(p-tert.-Butylbenzoyl)-4-(2-pyrazinyl)piperazine] | 39.7 | – | –
O=C(C1CC1)N1CCN(c2cnccn2)CC1 [1-Cyclopropylcarbonyl-4-(2-pyrazinyl)piperazine] | – | 37 | –
O=C(O)c1ccc(NC(=O)N2CCN(c3cnccn3)CC2)cc1 [p-[4-(2-Pyrazinyl)-1-piperazinecarboxamide]-benzoic acid] | 30.6 | – | –
O=C(Cc1cccc(Cl)c1)N1CCN(c2cnccn2)CC1 [1-(m-Chlorophenylacetyl)-4-(2-pyrazinyl)piperazine] | – | 46 | –
Cc1ccccc1CC(=O)N1CCN(c2cnccn2)CC1 [1-(2-Methylphenylacetyl)-4-(2-pyrazinyl)piperazine] | – | 55 | –
CCCCCCCC(=O)N1CCN(c2cnccn2)CC1 [1-octanoyl-4-(2-pyrazinyl)piperazine, 1-Octanoyl-4-(2-pyrazinyl)piperazine] | 33.6 | – | –
CNC(=O)N1CCN(c2cnccn2)CC1 [N--Methyl-4-(2-pyrazinyl)-1-piperazinecarboxamide] | – | 38 | –
Cc1cccc(CC(=O)N2CCN(c3cnccn3)CC2)c1 [1-(2-Pyrazinyl)-4-(m-tolylacetyl)piperazine] | – | 40 | –
O=C(Cc1ccccc1)N1CCN(Cc2cccnc2)CC1 [1-Phenylacetyl-4-(3-pyridylmethyl)piperazine] | – | 34 | –
CCOC(=O)c1ccc(NC(=O)N2CCN(c3cnccn3)CC2)cc1 [Ethyl-p-[4-(2-pyrazinyl)-1-piperazinecarboxamido]benzoate] | 42.2 | – | –
CC(C)(Oc1ccc(Cl)cc1)C(=O)N1CCN(c2cnccn2)CC1 [1-[2-(p-Chlorophenoxy)-2-methylpropionyl]-4-(2-pyrazinyl)piperazine] | 54.1 | 42 | –
O=C(Cc1ccc(Cl)cc1Cl)N1CCN(c2cnccn2)CC1 [1-(2,4-Dichlorophenylacetyl)-4-(2-pyrazinyl)piperazine] | 32.2 | 44 | –
O=C(Cc1ccc(Cl)cc1)N1CCN(c2cnccn2)CC1 [1-(p-Chlorophenylacetyl)-4-(2-pyrazinyl)piperazine] | – | 51 | –
O=C(c1c(F)c(F)c(F)c(F)c1F)N1CCN(c2cnccn2)CC1 [1-Pentafluorobenzoyl-4-(2-pyrazinyl)piperazine] | 31.2 | – | –
